Assay results taken from ChEMBL document CHEMBL1201862, “PubChem BioAssay data set” (2004).
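Method: 48-hour compound exposure of cells in 96-well plates, five concentrations, linear interpolation of endpoints. At the GI50, growth is halved.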 Active and inactive are the calls of the source. Rule as the data show it: active = GI50 up to about 1.1 µM and inactive = higher.

Assays:
Test in all cases: inhibition of tumour cell growth, NCI panel, 48 h
HCC 2998 = test system: HCC 2998
SK-MEL-2 = test system: SK-MEL-2
EKVX = test system: EKVX
M14 = test system: M14
SF-295 = test system: SF-295
NCI-H522 = test system: NCI-H522
SK-MEL-28 = test system: SK-MEL-28
SK-OV-3 = test system: SK-OV-3
CAKI-1 = test system: CAKI-1
HCT-15 = test system: HCT-15
OVCAR-5 = test system: OVCAR-5
M19-MEL = test system: M19-MEL
DLD-1 = test system: DLD-1
NCI-H23 = test system: NCI-H23
SF-539 = test system: SF-539
KM12 = test system: KM12
LOX IMVI = test system: LOX IMVI
A498 = test system: A498
BT-549 = test system: BT-549
MDA-MB-435 = test system: MDA-MB-435

SMILES | GI50 (HCC 2998) | GI50 (SK-MEL-2) | GI50 (EKVX) | GI50 (M14) | GI50 (SF-295) | GI50 (NCI-H522) | GI50 (SK-MEL-28) | GI50 (SK-OV-3) | GI50 (CAKI-1) | GI50 (HCT-15) | GI50 (OVCAR-5) | GI50 (M19-MEL) | GI50 (DLD-1) | GI50 (NCI-H23) | GI50 (SF-539) | GI50 (KM12) | GI50 (LOX IMVI) | GI50 (A498) | GI50 (BT-549) | GI50 (MDA-MB-435)
CCOC(OC1=C(C#N)CCCC1)C(CC)[Se]c1ccccc1[N+](=O)[O-] (stereo unspecified) | 17.7 µM (inactive) | 21 µM (inactive) | 30.8 µM (inactive) | 17.9 µM (inactive) | 22.2 µM (inactive) | 16.3 µM (inactive) | 34 µM (inactive) | 63.8 µM (inactive) | > 100 µM (inactive) | 18.5 µM | 31.4 µM (inactive) | 19.1 µM (inactive) | 17.9 µM (inactive) | 16.7 µM (inactive) | 20 µM (inactive) | 21.1 µM (inactive) | 16 µM (inactive) | > 100 µM (inactive) | – | –
CC1(n2nc(-c3ccccc3)n(-c3ccccc3)c2=O)CSC1 | > 100 µM (inactive) | > 100 µM (inactive) | > 100 µM (inactive) | > 100 µM (inactive) | > 100 µM (inactive) | > 100 µM (inactive) | > 100 µM (inactive) | > 100 µM (inactive) | > 100 µM (inactive) | > 100 µM | > 100 µM (inactive) | > 100 µM (inactive) | > 100 µM (inactive) | > 100 µM (inactive) | > 100 µM (inactive) | > 100 µM (inactive) | > 100 µM (inactive) | 38.2 µM (inactive) | – | –
COc1ccc(S(=O)(=O)N/N=C(\C)CN2C(=O)c3ccccc3C2=O)cc1 | > 100 µM (inactive) | > 100 µM (inactive) | > 100 µM (inactive) | > 100 µM (inactive) | > 100 µM (inactive) | > 100 µM (inactive) | > 100 µM (inactive) | > 100 µM (inactive) | > 100 µM (inactive) | > 100 µM | > 100 µM (inactive) | > 100 µM (inactive) | > 100 µM (inactive) | > 100 µM (inactive) | > 100 µM (inactive) | > 100 µM (inactive) | > 100 µM (inactive) | > 100 µM (inactive) | – | –
CN1OC(=O)N(C)C1c1ccccc1 (stereo unspecified) | > 100 µM (inactive) | > 100 µM (inactive) | > 100 µM (inactive) | – | > 100 µM (inactive) | > 100 µM (inactive) | > 100 µM (inactive) | > 100 µM (inactive) | – | > 100 µM | > 100 µM (inactive) | > 100 µM (inactive) | > 100 µM (inactive) | > 100 µM (inactive) | > 100 µM (inactive) | > 100 µM (inactive) | > 100 µM (inactive) | > 100 µM (inactive) | – | –
CN(C)CCC(/C=C/c1ccccc1)=N\Nc1c(F)c(F)c(F)c(F)c1F | – | 41.6 µM (inactive) | > 100 µM (inactive) | 44.1 µM (inactive) | 28.6 µM (inactive) | 64.1 µM (inactive) | > 100 µM (inactive) | > 100 µM (inactive) | – | 56.8 µM | > 100 µM (inactive) | 39.4 µM (inactive) | > 100 µM (inactive) | > 100 µM (inactive) | > 100 µM (inactive) | > 100 µM (inactive) | > 100 µM (inactive) | 62.2 µM (inactive) | – | –
O=P(Nc1cccc(Cl)c1)(Oc1ccccc1)N(CCCl)CCCl (stereo unspecified) | 14.8 µM (inactive) | 12.6 µM (inactive) | 17.7 µM (inactive) | 15.2 µM (inactive) | 14.5 µM (inactive) | 99.5 µM (inactive) | 16.6 µM (inactive) | > 100 µM (inactive) | 13.9 µM (inactive) | 13.5 µM | 14.5 µM (inactive) | 18 µM (inactive) | 14.4 µM (inactive) | 16.5 µM (inactive) | 16.7 µM (inactive) | 14.8 µM (inactive) | – | 14.4 µM (inactive) | – | –
CCOC(=O)[C@H]1Nc2ccc(Cl)cc2[C@H]2OCC[C@@H]12 | > 100 µM (inactive) | 75 µM (inactive) | > 100 µM (inactive) | > 100 µM (inactive) | > 100 µM (inactive) | > 100 µM (inactive) | > 100 µM (inactive) | > 100 µM (inactive) | > 100 µM (inactive) | > 100 µM | > 100 µM (inactive) | > 100 µM (inactive) | > 100 µM (inactive) | > 100 µM (inactive) | > 100 µM (inactive) | > 100 µM (inactive) | > 100 µM (inactive) | > 100 µM (inactive) | – | –
O=Cc1cn(C(=O)c2ccccc2)c2ccccc12 | > 100 µM (inactive) | > 100 µM (inactive) | > 100 µM (inactive) | > 100 µM (inactive) | 38.1 µM (inactive) | – | > 100 µM (inactive) | > 100 µM (inactive) | 82.8 µM (inactive) | > 100 µM | > 100 µM (inactive) | > 100 µM (inactive) | > 100 µM (inactive) | 80.4 µM (inactive) | 80 µM (inactive) | 64 µM (inactive) | – | > 100 µM (inactive) | – | –
COc1ccc(C2Oc3cc(OC)c(O)cc3[C@@H]2C)cc1 (stereo partly specified) | 57.5 µM (inactive) | 43 µM (inactive) | 56.4 µM (inactive) | 19.1 µM (inactive) | > 100 µM (inactive) | 16.5 µM (inactive) | 56.8 µM (inactive) | > 100 µM (inactive) | 29.3 µM (inactive) | 16.5 µM | > 100 µM (inactive) | > 10 µM (inactive) | 19.9 µM (inactive) | 23.6 µM (inactive) | > 100 µM (inactive) | 45 µM (inactive) | 14.3 µM (inactive) | > 100 µM (inactive) | – | –
Cc1nc2ccc(NCCN(C)C)c3c(=O)c4ccccc4n1c23 | 2.96 µM (inactive) | 5.47 µM (inactive) | 3.05 µM (inactive) | 4.03 µM (inactive) | 1.84 µM (inactive) | 1.52 µM (inactive) | 8.22 µM (inactive) | 3.96 µM (inactive) | 2.76 µM (inactive) | 1.25 µM | 4.9 µM (inactive) | 5.9 µM (inactive) | 2.74 µM (inactive) | 2.97 µM (inactive) | 2.74 µM (inactive) | 2.21 µM (inactive) | 0.9 µM (active) | 3.91 µM (inactive) | 10.5 µM (inactive) | 2.09 µM (inactive)
CC(C)=CC(=O)OC1C2C(C)C(=O)OC2C(O)C(C)C2C=CC(=O)C21C (stereo unspecified) | 5.47 µM (inactive) | 4.15 µM (inactive) | 2.92 µM (inactive) | – | 6.14 µM (inactive) | 0.569 µM (active) | 1.34 µM (inactive) | 7.23 µM (inactive) | 3.24 µM (inactive) | 2 µM | 7.83 µM (inactive) | 3.01 µM (inactive) | 1.14 µM (inactive) | 2.71 µM (inactive) | 3.61 µM (inactive) | 4.03 µM (inactive) | 0.918 µM (active) | 2.05 µM (inactive) | – | –
CC(C)CCCCCCCCCCCCC(=O)NCC(=O)NC1C(C)OC(Nc2ncnc3c2ncn3C)C(O)C1O (stereo unspecified) | 1.28 µM (inactive) | 8.34 µM (inactive) | > 100 µM (inactive) | – | 6.4 µM (inactive) | 6.7 µM (inactive) | > 100 µM (inactive) | 3.1 µM (inactive) | 0.805 µM (active) | > 100 µM | 7.33 µM (inactive) | 11.4 µM (inactive) | 12.1 µM (inactive) | 9.42 µM (inactive) | 2.82 µM (inactive) | 5.47 µM (inactive) | 5.3 µM (inactive) | 4.15 µM (inactive) | – | –
CC1(c2ccc(Cl)cc2)C2C(=O)NC(=O)C1C(=O)NC2=O (stereo unspecified) | > 100 µM (inactive) | > 100 µM (inactive) | > 100 µM (inactive) | > 100 µM (inactive) | > 100 µM (inactive) | > 100 µM (inactive) | > 100 µM (inactive) | > 100 µM (inactive) | > 100 µM (inactive) | > 100 µM | > 100 µM (inactive) | > 100 µM (inactive) | > 100 µM (inactive) | > 100 µM (inactive) | > 100 µM (inactive) | > 100 µM (inactive) | > 100 µM (inactive) | > 100 µM (inactive) | – | –
O=C(Nc1ccccc1)C(=O)C(C(=O)c1ccccc1F)C1OC(=O)c2ccccc21 (stereo unspecified) | 30.3 µM (inactive) | 23.9 µM (inactive) | 35 µM (inactive) | 44 µM (inactive) | 47.1 µM (inactive) | 21.5 µM (inactive) | 40.6 µM (inactive) | 49 µM (inactive) | 55.6 µM (inactive) | 22.9 µM | 81.5 µM (inactive) | 30.1 µM (inactive) | 41.9 µM (inactive) | 47.3 µM (inactive) | 19.3 µM (inactive) | 26.9 µM (inactive) | 27.2 µM (inactive) | 89.3 µM (inactive) | – | –
Cc1cc(N(CCC#N)CCC#N)ccc1/N=N/c1cccc(C(=O)O)c1 | > 100 µM (inactive) | > 100 µM (inactive) | > 100 µM (inactive) | > 100 µM (inactive) | > 100 µM (inactive) | 38.8 µM (inactive) | 97.7 µM (inactive) | > 100 µM (inactive) | > 100 µM (inactive) | > 100 µM | > 100 µM (inactive) | > 100 µM (inactive) | > 100 µM (inactive) | > 100 µM (inactive) | > 100 µM (inactive) | > 100 µM (inactive) | > 100 µM (inactive) | > 100 µM (inactive) | – | –
Clc1ccc2c(Cl)nc(-c3ccccc3)nc2c1 | 34.8 µM (inactive) | 26.4 µM (inactive) | 11.4 µM (inactive) | – | 25.2 µM (inactive) | – | 32.2 µM (inactive) | 14.1 µM (inactive) | 23.6 µM (inactive) | – | 51.8 µM (inactive) | 47.1 µM (inactive) | 27.6 µM (inactive) | 10.7 µM (inactive) | – | 36.8 µM (inactive) | – | 37.4 µM (inactive) | – | –
